Results: patent EP0567613B1, “COMPOSITIONS FOR THERAPY AND PREVENTION OF CANCER” (The Government of the United States of America, as …, priority 1991, dated 1993)
Read-outs that look alike come from different tables or passages of the source.

Tests used:
Assay in all cases: Tumor cell growth / proliferation
Type in all cases: cell-based
DU145 = settings: Homo sapiens
Experimental: (§1) Studies of depth were performed with two androgenindependent human prostate adenocarcinoma cell lines, PC3 and DU145, established from bone and brain metastases, respectively.

[1] = system: Prostate Adenocarcinoma PC3; settings: Homo sapiens
Experimental: as §1

Astrocytoma U343 = system: Astrocytoma U343

SMILES: O=C([O-])Cc1ccccc1.[Na+] [NaPA, sodium phenylacetate]
- IC50 (DU145; DU-145, growth arrest, read-out: IC50): 600 to 800 mg/L
- inhibition at 800 µg/mL (DU145; DU-145, read-out: % Inhibition by NaPA 0.8 mg/ml, 0.8 mg/ml): ≥ 50%
- IC50 (DU145; DU-145, read-out: concentration causing about 50% inhibition of growth): 400 to 800 mg/L
- IC50 [1]: 600 to 800 mg/L
- viability at 800 µg/mL ([1]; PC-3): > 95%
- activity at 800 µg/mL ([1]; PC-3, read-out: Growth): 59.6%
- IC50 ([1]; PC-3, read-out: concentration causing about 50% inhibition of growth): 400 to 800 mg/L
- inhibition at 800 µg/mL ([1]; read-out: % Inhibition by NaPA 0.8 mg/ml): ≥ 50%
- IC50 (Astrocytoma U343; astrocytoma 343, read-out: concentration causing about 50% inhibition of growth): 400 to 800 mg/L
- inhibition at 800 µg/mL (Astrocytoma U343; read-out: % Inhibition by NaPA 0.8 mg/ml, U343, 0.8 mg/ml): ≥ 50%
